Our source for the GI50 and inhibition values is patent US20100298402A1, “STILBENE DERIVATIVES AS PSTAT3/IL-6 INHIBITORS” (ORCHID RESEARCH LABORATORIES LIMITED, priority 2007, published 2010).

Experiment [1] relates to HCT 116 (colon), NCIH460 (lung) and U251 (glioma) cell lines. Description: Anti-cancer screen (MTT growth inhibition, 48 hours).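 Note: mean GI50 across the three cell lines.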 In kind it is cell-based. Particulars: Homo sapiens; HCT 116, NCIH460 and U251 cell lines; MTT after 48 hours of incubation. As to the method:
The experimental drugs were screened for anti-cancer activity in three cell lines using five concentrations for each compound. The cell lines—HCT 116 (colon), NCIH460 (lung) and U251 (glioma) were maintained in DMEM containing 10% fetal bovine serum. 96-well microtiter plates are inoculated with cells in 100 μL of cell suspension (5×10^4 cells/mL) for 24 hours at 37° C., 5% CO2, 95% air and 100% relative humidity. A separate plate with these cell lines is also inoculated to determine cell viability before the addition of the compounds (T0)
Following 24-hour incubation, test compounds were added to the 96 well plates. Each plate contains one of the above cell lines and the following samples in triplicate: five different dilutions (0.01, 0.1, 1, 10 and 100 μM) of four test compounds, appropriate dilutions of a cytotoxic standard and growth medium (untreated) wells. Test compounds were dissolved in DMSO to prepare 20 mM stock solutions on the day of drug addition and serial dilutions were carried out in complete growth medium at 2× strength, such that 100 μL added to the wells gave final concentrations (0.01, 0.1, 1, 10 and 100 μM) in the well. SAHA was used as the standard drug in these experiments.
For T0 measurement, 24 hours after seeding the cells, 20 μL of 3-(4,5-dimethyl-2-thiazolyl)-2,5-diphenyl-2H-tetrazolium (MTT) solution per well was added to the ‘T0’ plate and incubated for 3 hours at 37° C. in a CO2 incubator. The plate containing cells and test compounds was treated similarly after 48 hours of incubation. After 3 hours of MTT addition, well contents were aspirated carefully followed by addition of 150 μL DMSO per well. Plates were agitated to ensure dissolution of the formazan crystals in DMSO and absorbance was read at 570 nm (A570).
Percent growth (PG) is calculated relative to the control and zero measurement wells (T0) as follows:
PG values are plotted against drug concentration to derive the following: GI50 is the concentration required to decrease PG by 50% vs control; TGI is the concentration required to decrease PG by 100% vs control and LC50 is the concentration required to decrease PG by 50% vs T0. (Mosmann T. Rapid colorimetric assay for cellular growth and survival: application to proliferation and cytotoxicity assays. (J. Immunol. Methods. 1983, 65 (1-2), 55-63; Anne Monks et al); feasibility of high-flux anticancer drug screen using a diverse panel of cultured human tumor cell lines”. (JNCI, Vol. 83, No. 11, 1991). Results for growth inhibition of synthesized compounds are given in Table-1.

The test system of experiment [2] is IL-6 in supernatant of NCIH 460 cells. Nature of the experiment: Measuring IL-6 in culture supernatants (ELISA). As to conditions: Homo sapiens, NCI-H460, 5 hours incubation. The experiment is classed as cell-based. Background: ELISA stands for enzyme-linked immunosorbent assay.

`COC(=O)/C(=C/c1ccc(OCC(O)CNCCOc2ccccc2OC)cc1)c1ccc(F)cc1` (stereo not drawn) [Example 41, 3-{4-[3-(2-Methoxyphenoxyethylamino)-2-hydroxypropoxy]phenyl}-2-(4-fluorophenyl)acrylic acid methyl ester]: the GI50 in experiment [1] was 11.4 µM. For the same compound, the inhibition at 10 µM in experiment [2] stood at 68%.

As for `COC(=O)/C(=C/c1ccc(OCC(O)CNCCOc2ccccc2OC)cc1)c1ccc(OC)cc1` (stereo not drawn) [Example 29, 3-{4-[3-(2-Methoxyphenoxyethylamino)-2-hydroxypropoxy]phenyl}-2-(4-(methoxy)phenyl)acrylic acid methyl ester], the GI50 in experiment [1] was found to be 1.9 µM. For the same compound, in experiment [2], the inhibition at 10 µM stood at 64.2%.

As to `COC(=O)/C(=C/c1ccc(OCC(O)CNCc2ccccc2)cc1)c1ccccc1` (stereo not drawn) [Example 44, 3-{4-[3-(Benzylamino)-2-hydroxypropoxy]phenyl}-2-phenylacrylic acid methyl ester], the GI50 in experiment [1] amounted to 2.1 µM. Moreover, 10 µM produced 7.7% inhibition in experiment [2].

Regarding `COC(=O)/C(=C/c1ccc(OCC(O)CNCc2ccccc2)cc1)c1ccc(F)cc1` (stereo not drawn) [Example 36, 3-{4-[3-(Benzylamino)-2-hydroxypropoxy]phenyl}-2-(4-fluorophenyl)acrylic acid methyl ester], in experiment [1], it took 12 µM to inhibit growth by half (GI50). 10 µM produced 27.9% inhibition in experiment [2].

With `COC(=O)/C(=C/c1ccc(OCC(O)CNCc2ccccc2)cc1)c1cccs1` (stereo not drawn) [Example 31, 3-{4-[3-(Benzylamino)-2-hydroxypropoxy]phenyl}-2-(thiophen-2-yl)acrylic acid methyl ester], in experiment [1], the GI50 stood at 0.9 µM. The compound further yielded an inhibition at 10 µM in experiment [2] of 2.1%.

For `COC(=O)/C(=C/c1ccccc1)c1ccc(OCC(O)CNCCOc2ccccc2OC)cc1` (stereo not drawn) [Example 25, 2-{4-[3-(2-Methoxyphenoxyethylamino)-2-hydroxypropoxy]phenyl}-3-phenylacrylic acid methyl ester], in experiment [1], it took 27.8 µM to inhibit growth by half (GI50). In addition, in experiment [2], 10 µM produced 20.5% inhibition.

Take `COC(=O)/C(=C/c1cc(OC)cc(OC)c1)c1ccc(OCC(O)CNCc2ccccc2)cc1` (stereo not drawn) [Example 18, 2-{4-[3-(Benzylamino)-2-hydroxypropoxy]phenyl}-3-(3,5-dimethoxyphenyl)acrylic acid methyl ester]: in experiment [1], halving of growth (GI50) required 5.3 µM. The same compound gave an inhibition at 10 µM in experiment [2] of 25%.

With `COC(=O)/C(=C/c1cc(OC)cc(OC)c1)c1ccc(OCC(O)CNCCOc2ccccc2OC)cc1` (stereo not drawn) [Example 5, 2-{4-[3-(2-Methoxyphenoxyethylamino)-2-hydroxypropoxyl]phenyl}-3-(3,5-dimethoxyphenyl)acrylic acid methyl ester], the GI50 in experiment [1] is 3.1 µM. Further, 10 µM produced 37% inhibition in experiment [2].

`COC(=O)/C(=C/c1cc(OC)c(OC)c(OC)c1)c1ccc(OCC(O)CNCCOc2ccccc2OC)cc1` (stereo not drawn) [Example 11, 2-{4-[3-(2-Methoxyphenoxyethylamino)-2-hydroxypropoxyl]phenyl}-3-(3,4,5-trimethoxyphenyl)acrylic acid methyl ester] showed a GI50 in experiment [1] of 37.3 µM. This compound showed an inhibition at 10 µM in experiment [2] of 29%.

In turn, `COC(=O)/C(=C/c1ccc(OCC(O)CNCc2ccc(F)cc2)cc1)c1ccccc1` (stereo not drawn) [Example 10, 3-{4-[3-(4-Fluorobenzylamino)-2-hydroxypropoxyl]phenyl}-2-phenylacrylic acid methyl ester] displayed a GI50 in experiment [1] of 35.3 µM. Moreover, the inhibition at 10 µM in experiment [2] was found to be 4.5%.

As for `COC(=O)/C(=C/c1cc(OC)c(OC)c(OC)c1)c1ccc(OCC(O)CNCc2ccc(OC)cc2OC)cc1` (stereo not drawn) [Example 6, 2-{4-[3-(2,4-Dimethoxybenzylamino)-2-hydroxypropoxyl]phenyl}-3-(3,4,5-trimethoxyphenyl)acrylic acid methyl ester], the GI50 in experiment [1] was 5.2 µM. Further, testing at 10 µM in experiment [2] gave an inhibition of 73%.

As to `COC(=O)/C(=C/c1ccc(SC)cc1)c1ccc(OCC(O)CNCCOc2ccccc2OC)cc1` (stereo not drawn) [Example 23, 2-{4-[3-(2-Methoxyphenoxy-ethylamino)-2-hydroxy-propoxy]-phenyl}-3-(4-(methylthio)phenyl)-acrylic acid methyl ester], the GI50 in experiment [1] was 11.7 µM. 10 µM produced 54.2% inhibition in experiment [2].

In turn, `COC(=O)/C(=C/c1ccc(OCC(O)CNCc2ccccc2)cc1)c1ccc(C)cc1` (stereo not drawn) [Example 39, 3-{4-[3-(Benzylamino)-2-hydroxypropoxy]phenyl}-2-(4-methylphenyl)acrylic acid methyl ester] gave a GI50 in experiment [1] of 6.3 µM. Further, in experiment [2], the inhibition at 10 µM is 41.8%.

On to `COC(=O)/C(=C/c1ccccc1)c1ccc(OCC(O)CNCc2ccc(OC)cc2OC)cc1` (stereo not drawn) [Example 17, 2-{4-[3-(2,4-Dimethoxybenzylamino)-2-hydroxypropoxy]phenyl}-3-phenylacrylic acid methyl ester], for which, in experiment [1], growth was halved (GI50) at 3.4 µM. The compound also returned an inhibition at 10 µM in experiment [2] of 25%.

For `COC(=O)/C(=C/c1ccc(OC)c(OC)c1)c1ccc(OCC(O)CNCc2ccc(OC)cc2OC)cc1` (stereo not drawn) [Example 13, 2-{4-[3-(2,4-Dimethoxybenzylamino)-2-hydroxypropoxyl]phenyl}-3-(3,4,-dimethoxyphenyl)acrylic acid methyl ester], in experiment [1], growth was halved (GI50) at 3.5 µM. In experiment [2], the inhibition at 10 µM was determined as 67%.

`COC(=O)/C(=C/c1ccccc1OCC(O)CNCCOc1ccccc1OC)c1ccc(OC)cc1` (stereo not drawn) [Example 46, 3-{2-[3-(2-Methoxyphenoxyethylamino)-2-hydroxypropoxy]phenyl}-2-(4-methoxyphenyl)acrylic acid methyl ester]: halving of growth in experiment [1] (GI50) required 1.6 µM. Further, the inhibition at 10 µM in experiment [2] turned out to be 48%.

Turning to `COC(=O)/C(=C/c1ccccc1OCC(O)CNCc1ccc(OC)cc1OC)c1ccc(OC)cc1` (stereo not drawn) [Example 45, 3-{2-[3-(2,4-Dimethoxybenzylamino)-2-hydroxypropoxy]phenyl}-2-(4-methoxyphenyl)acrylic acid methyl ester], the GI50 in experiment [1] turned out to be 1.2 µM. Besides, testing at 10 µM in experiment [2] gave an inhibition of 56%.

In turn, `COC(=O)/C(=C/c1ccc(OC)c(OC)c1)c1ccc(OCC(O)CNCCOc2ccccc2OC)cc1` (stereo not drawn) [Example 14, 2-{4-[3-(2-Methoxyphenoxyethylamino)-2-hydroxypropoxyl]phenyl}-3-(3,4,-dimethoxyphenyl)acrylic acid methyl ester] registered a GI50 in experiment [1] of 4 µM. In addition, the inhibition at 10 µM in experiment [2] was 38%.

One may read the GI50 as the concentration that inhibits growth by half. A lower GI50 goes with greater sensitivity of the cells. For orientation: inhibition means the change of the read-out against control, counted positive when it falls. The low end stands for a weak effect, the high end for a strong effect.
